Results reported in patent publication US20130072385A1, “METHODS FOR DELAYING BUD BREAK BY APPLYING ABA ANALOGS” (priority 2011, published 2013).

Tests used:
Concord grapevines = test: Repeated spray of potted Concord grapevines during the bud break period; assay type: in vivo; conditions: for Average number of broken buds per vine: 1000 ppm in 0.05% Silwet L77, repeated spray
Protocol: A study was conducted to determine the effect of spraying Concord grapevines with ABA or ABA analog PBI-429 during bud break. Potted concord grapevines were placed in greenhouse conditions to promote bud break and the vines were repeatedly sprayed with ABA or ABA analog solutions. The vines were sprayed 2, 4, 8, 12 and 14 days after exposure of the vines into bud break promoting temperatures. Bud break was rated 6, 7, 8, 11, 12, 13, 14, 15, 19 and 20 days after vines were placed in warm bud break promoting conditions.

PF-11 nectarine trees = test: Fall foliar spray of PF-11 nectarine trees, bud break the following spring; assay type: in vivo; conditions: 10,000 ppm in 0.1% Brij 98, fall foliar application; April 8
Protocol: A study was conducted to determine the effect of spraying nectarine trees with ABA or ABA analogs in the fall on bud break the following spring. Mature PF-11 nectarine trees were sprayed to drip with surfactant alone or surfactant and ABA or ABA analog on Oct. 19, 2009. Trees were sprayed with approximately 500 ml (20.5 grams ABA analog/acre) applied to each of 6 trees per treatment arranged in a randomized complete block design. The following spring bud break on pre-selected branches was monitored.

## (S)-5-(1-hydroxy-2,6,6)-trimethyl-4-oxo-2-cyclohexen-1-yl)-3-methyl-(2 Z,4E)-pentadienoic acid [ABA]
Concord grapevines; 6 days after warming
  Average number of broken buds per vine: 0.2
Concord grapevines; 7 days after warming
  Average number of broken buds per vine: 0.2
Concord grapevines; 8 days after warming
  Average number of broken buds per vine: 0.8
Concord grapevines; 11 days after warming
  Average number of broken buds per vine: 2.8
Concord grapevines; 12 days after warming
  Average number of broken buds per vine: 3.2
Concord grapevines; 13 days after warming
  Average number of broken buds per vine: 3.8
Concord grapevines; 14 days after warming
  Average number of broken buds per vine: 4.8
Concord grapevines; 15 days after warming
  Average number of broken buds per vine: 5.3
Concord grapevines; 19 days after warming
  Average number of broken buds per vine: 7.0
Concord grapevines; 20 days after warming
  Average number of broken buds per vine: 7.0
Concord grapevines; repeated spray application during the bud break period
  Effect on average number of broken buds over time: not significantly impacted
PF-11 nectarine trees
  Percentage of broken floral buds: 78 Percentage
